From patent US4232013A, “16,17-Pyrazolino- and 16,17-isopyrazolino-1,4-pregnadiene derivatives” (Lark S.p.A., priority 1977, dated 1980)

Experiments:
[1] = test system: granuloma formation; assay: cotton granuloma assay, topical anti-inflammatory activity; type: in vivo, rat (adult female albino, Sprague-Dawley); design: key: relative potency; comparison steroid = 1; conditions: 20-2-0.2 mcg/cotton pellet, 7 days; for Anti-inflammatory activity (*): (*) in comparison with Fluocinolone acetonide; for Anti-inflammatory activity (**): (**) in comparison with Dexamethasone 21-acetate
Method: (§1) The topical anti-inflammatory activity of the new compounds of this invention was determined using the cotton granuloma assay. This test was performed according to C. A. Winter and C. C. Porter J. Am. Pharm. Ass. Sci., Ed. 46, 515. 1957 using adult female albino rats (Sprague-Dawley) average body weight 150 grams. 8 animals per group.
(§2) The method consists in the subcutaneous implantation in the dorsal region of 2 sterile cotton pelletts. The pellets employed were 5 mm section cut from dental cotton rolls weighing about 45 mg each. The tested compound dissolved in ethyl alcohol, was absorbed on the pellets before implantation. Fluocinolone acetonide and Dexamethasone-21-acetate was used as comparison products and their activities were conventionally taken equal to 1 for each of the various parameters herein considered. Comparison substance and tested new compounds were absorbed on the pellets at the following scalar dosage per each pellet: 20-2-0.2 mcg/cotton pellet. For the controls the pellets were soakened in the pure solvent (ethyl alcohol) and then dried as usually.
After seven days the animals were sacrified. The pellets were removed and the exudate weights were recorded as a measure of the granuloma formation. The degree of granuloma inhibition reflects the anti-inflammatory activity of the tested compounds.
(§3) In the following Table 1. there are reported the achieved results with regard to the anti-inflammatory activity, the thymolitic activity, and the LD50 values: […]

[2] = thymolytic activity (topical administration); type: in vivo, rat (adult female albino, Sprague-Dawley)
Method: as §1, §2, §3

[3] = LD50 (acute toxicity); conditions: in vivo, topical or ocular; Table 1, topical administration
Source text: as §3

[4] = test system: vasoconstrictive activity, human volunteers; assay: vasoconstrictive activity in human volunteers (McKenzie and Stoughton's test or Falconi and Rossi's Paper-Patch Test); type: in vivo; conditions: for vasoconstrictive activity (in words): human volunteers
Source text: Some of the esters have been tested in human volunteers for their vasoconstrictive activity using the McKenzie and Stoughton's test (1) or the Falconi and Rossi's Paper-Patch Test (2) in comparison with a known anti-inflammatory corticosteroid, namely fluocinolone acetonide.
In the first experiment 2 dilutions of 4 esters have been tested on volunteers and 10 dilutions have been applied for each subject.
1. Mc Kenzie, A.W., Stoughton, R.B.: Method for comparing percutaneous
absorption of Steroids. Arch. Derm. 86, 608, 1962.
vasoconstrictive activity of Corticosteroids. Arch. Derm. 105, 856, 1972.

[5] = topical, relative, comparison product conventionally equal to 1 (Dexamethasone 21-acetate = 1)
[6] = Table 2, first trial, dilution 10^4
[7] = Table 2, first trial, dilution 10^5
[8] = Table 2a, second trial, dilution 10^3
[9] = Table 2a, second trial, dilution 10^4
[10] = Table 2a, second trial, dilution 10^5
[11] = Table 2a, second trial, dilution 10^6

Structure (SMILES)	Anti-inflammatory activity (*) [1]	Anti-inflammatory activity (**) [1]	Thymolytic activity [2, 5]	LD50 [3] [mg/kg]	% Positive [4, 6] [%]	Results (Positive/No. of subjects) [4, 6]	% Positive [4, 7] [%]	Results (Positive/No. of subjects) [4, 7]	further results
CC(=O)OCC(=O)[C@@]12NN=C[C@@H]1C[C@H]1[C@@H]3C[C@H](F)C4=CC(=O)C=C[C@]4(C)[C@@]3(F)[C@@H](O)C[C@@]12C [16,17 M Dif-AC, 16α,17α-Isopyrazolino-1,4-pregnadiene-6α,9α-difluoro-11β,21-diol-3,20-dione 21-acetate]	> 10	> 20	0.26	1120	–	–	–	–	–
CC(=O)OCC(=O)[C@@]12NN=C[C@@H]1C[C@H]1[C@@H]3CCC4=CC(=O)C=C[C@]4(C)[C@@]3(F)[C@@H](O)C[C@@]12C [16-17 MF-AC, 16α,17α-Isopyrazolino-1,4-pregnadiene-9α-fluoro-11β,21-diol-3,20-dione-21-acetate]	> 10	> 20	0.02	> 2000	–	–	–	–	–
CC(C)(C)C(=O)OCC(=O)[C@@]12NN=C[C@@H]1C[C@H]1[C@@H]3C[C@H](F)C4=CC(=O)C=C[C@]4(C)[C@@]3(F)[C@@H](O)C[C@@]12C [16-17-M-Dif-Piv, 16α,17α-Isopyrazolino-1,4-pregnadiene-6α,9α-difluoro-11β,21-diol-3,20-dione-21-pivalate]	–	–	–	–	20	1/5	0	0/5	–
CCCCC(=O)OCC(=O)[C@@]12NN=C[C@@H]1C[C@H]1[C@@H]3C[C@H](F)C4=CC(=O)C=C[C@]4(C)[C@@]3(F)[C@@H](O)C[C@@]12C [16-17-M-Dif-Va, 16α,17α-Isopyrazolino-1,4-pregnadiene-6α,9α-difluoro-11β,21-diol-3,20-dione-21-valerate]	–	–	–	–	100	5/5	40	2/5	% Positive [4, 8]: 100%; Results (Positive/No. of subjects) [4, 8]: 5/5; % Positive [4, 9]: 80%; Results (Positive/No. of subjects) [4, 9]: 4/5; % Positive [4, 10]: 80%; Results (Positive/No. of subjects) [4, 10]: 4/5; % Positive [4, 11]: 60%; Results (Positive/No. of subjects) [4, 11]: 3/5; vasoconstrictive activity (in words) [4]: showed the best activity in the first trial; vasoconstrictive activity (in words) ([4]; listed as 16-17-Dif-Va): showed the same potency as fluocinolone acetonide even at the lower concentrations employed in the trials
CC(=O)OCC(=O)[C@@]1(O)[C@H](C)C[C@H]2[C@@H]3CCC4=CC(=O)C=C[C@]4(C)[C@@]3(F)[C@@H](O)C[C@@]21C [Dexamethasone 21-acetate, reference compound]	1	1	–	259	–	–	–	–	Thymolytic activity ([2]; rat, in vivo): 1
CCCC(=O)OCC(=O)[C@@]12NN=C[C@@H]1C[C@H]1[C@@H]3C[C@H](F)C4=CC(=O)C=C[C@]4(C)[C@@]3(F)[C@@H](O)C[C@@]12C [Example 16-17-Dif-Bu, 16α,17α-Isopyrazolino-1,4-pregnadiene-6α,9α-difluoro-11β,21-diol-3,20-dione-21-butyrate]	–	–	–	–	60	3/5	20	1/5	–
CCCCC(=O)OCC(=O)[C@@]12NN=C[C@@H]1C[C@H]1[C@@H]3CCC4=CC(=O)C=C[C@]4(C)[C@@]3(F)[C@@H](O)C[C@@]12C [Example 16-17-M-F-Va, 16α,17α-Isopyrazolino-1,4-pregnadiene-9α-fluoro-11β,21-diol-3,20-dione-21-valerate]	–	–	–	–	100	5/5	40	1/5	–
CC1(C)O[C@@H]2C[C@H]3[C@@H]4C[C@H](F)C5=CC(=O)C=C[C@]5(C)[C@@]4(F)[C@@H](O)C[C@]3(C)[C@]2(C(=O)CO)O1 [Fluocinolone acetonide, reference compound]	2	2	–	166	100	5/5	60	3/5	Thymolytic activity ([2]; rat, in vivo): 0.83
CC(=O)OCC(=O)[C@@]12N=NC[C@@H]1C[C@H]1[C@@H]3C[C@H](F)C4=CC(=O)C=C[C@]4(C)[C@@]3(F)[C@@H](O)C[C@@]12C [Pyr Dif-AC, 16α,17α-Pyrazolino-1,4-pregnadiene-6α,9α-difluoro-11β,21-diol-3,20-dione 21-acetate]	> 10	> 20	0.52	439	–	–	–	–	–
CC(=O)OCC(=O)[C@@]12N=NC[C@@H]1C[C@H]1[C@@H]3CCC4=CC(=O)C=C[C@]4(C)[C@@]3(F)[C@@H](O)C[C@@]12C [Pyr-F-Ac, 16α,17α-Pyrazolino-1,4-pregnadiene-9α-fluoro-11β,21-diol-3,20-dione-21-acetate]	≥ 10	≥ 20	0.14	721	–	–	–	–	–
CC1(C)O[C@@H]2C[C@H]3[C@@H]4CCC5=CC(=O)C=C[C@]5(C)[C@@]4(F)[C@@H](O)C[C@]3(C)[C@]2(C(=O)CO)O1 [Triamcinolone acetonide, reference compound]	–	–	–	–	–	–	–	–	% Positive [4, 8]: 100%; Results (Positive/No. of subjects) [4, 8]: 5/5; % Positive [4, 9]: 100%; Results (Positive/No. of subjects) [4, 9]: 5/5; % Positive [4, 10]: 60%; Results (Positive/No. of subjects) [4, 10]: 3/5; % Positive [4, 11]: 40%; Results (Positive/No. of subjects) [4, 11]: 2/5
